Data from patent US8138220B2, “[2-(6-fluoro-1H-indol-3-ylsulfanyl)benzyl]methyl amine for the treatment of affective disorders” (H. Lundbeck A/S, priority 2006, dated 2012).
Several values for one entry are separate records, joined by “and”; a condition that tells them apart may be missing. Equal values may be shown once.

Target: T1, α1A receptor (Homo sapiens, UniProt P35348)
T1 construct: expressed in transfected cells
T1 sequence (P35348 1-466): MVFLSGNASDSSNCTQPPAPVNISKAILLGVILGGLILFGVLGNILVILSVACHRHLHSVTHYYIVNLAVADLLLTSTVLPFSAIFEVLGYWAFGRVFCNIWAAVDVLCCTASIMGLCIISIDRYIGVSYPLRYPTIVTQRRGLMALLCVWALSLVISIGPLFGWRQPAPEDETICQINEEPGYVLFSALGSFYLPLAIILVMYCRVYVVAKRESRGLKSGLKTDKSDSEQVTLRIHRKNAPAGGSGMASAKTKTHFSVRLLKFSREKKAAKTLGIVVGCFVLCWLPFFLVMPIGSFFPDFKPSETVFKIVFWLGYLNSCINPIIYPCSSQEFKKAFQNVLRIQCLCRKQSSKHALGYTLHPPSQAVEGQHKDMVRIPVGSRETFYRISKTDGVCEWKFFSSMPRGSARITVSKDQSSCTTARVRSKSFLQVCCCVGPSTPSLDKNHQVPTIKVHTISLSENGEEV
Assay: α1A receptor affinity, [3H]-Prazosin binding to membranes
Conditions: Cheng Prusoff
Experimental: On the day of the experiments membranes (see below for description of membrane preparation) are thawed and homogenized in buffer using an ultra turrax and diluted to the desired concentration (5 μg/well˜5 μg/900 μl, store on ice until use).
The experiment is initiated by mixing of 50 μl test compound, 50 μl [^3H]-Prazosin and 900 μl membranes, and the mixture is incubated for 20 minutes at 25° C. Non-specific binding is determined in the presence of 10 μM WB-4101 and the total binding is determined in the presence of buffer. After the incubation, bound ligand is separated from unbound by filtration through Unifilter GF/B, presoaked in 0.1% PEI for 30 minutes, using a Tomtec Cell Harvester program (D4.2 . . . 4) 96 well. Filters are washed 3 times with 1 ml ice-cold buffer, dried at 50° C. and 35 μl scintillation liquid/well is added to the filters. Bound radioactivity is counted in a Wallac OY 1450 MicroBeta. The affinity (Ki 10 nM) is calculated from Y=100/(1+10^(X-logIC50^)) where Y denotes % binding and X denotes the concentration of compound. […] Ki was calculated from the Cheng Prusoff equation Ki=(IC50/(1+([L]/Kd))
Cells were grown to 95% confluence, washed twice with buffer (50 mM Tris pH 7.7, 125 mM NaCl) and detached by scraping in a volume of 10 ml buffer/160 cm^2. […] Protein concentration was measured with BCA™ (Pierce #23223+23224).

CNCc1ccccc1Sc1c[nH]c2cc(F)ccc12 [compounds of the present invention, [2-(6-fluoro-1H-indol-3-ylsulfanyl)benzyl]methyl amine]
Ki: 14 nM and 10 nM
